Measured values from patent US8524701B2, “Use of a specific cyclic amine derivative or the pharmaceutically acceptable salts thereof for the treatment or prevention of heart failure” (Boehringer Ingelheim Pharma GmbH & Co. KG, priority 2002, dated 2013).
Read-outs that look alike come from different tables or passages of the source.

Tests used:
heart rate [1] = type: in vivo; details: rat
Protocol: A further similar experiment was performed in order to compare the visual side-effect of cilobradine and zatebradine in conditions where the drugs are pharmacologically effective in reducing heart rate. The aim of this experiment was to compare the visual side-effect of both drugs in another experimental animal model, namely on the retinal system of the rat. Furthermore, the aim of this experiment was also to compare the visual side-effect of both drugs in acute and in chronic (over two weeks) drug treatment conditions.
The ERG measurements were made 30 minutes after injection of the drug. The measured heart rate frequency was:
The ERG measurement was made 30 minutes after injection of the drug. The measured heart rate frequency was:
(§1) The ERG measurement was made after the 2 weeks treatment.

cat eyes [2] = experiment: Electroretinogram (ERG) response to sinusoidally modulated luminances recorded from cat eyes; type: in vivo
Protocol: The content of these references, and more particularly the experimental parts described therein, are herein incorporated by reference.
These studies were based on a measurement of the electroretinogram (ERG) responses recorded from cat eyes, in normal conditions and after administration of zatebradine.
In the following experiment, the same experiment was performed using cilobradine, and the results compared to the results obtained with zatebradine.

[3] = system: retinal system of the rat; experiment: Electroretinogram (ERG) responses from anesthetized pigmented rats as a function of stimulus frequency; type: in vivo; details: for effect on the ERG (visual side-effect): 30 minutes after injection
Description: The aim of this experiment was to compare the visual side-effect of both drugs in another experimental animal model, namely on the retinal system of the rat. Furthermore, the aim of this experiment was also to compare the visual side-effect of both drugs in acute and in chronic (over two weeks) drug treatment conditions.
The principle of this experiment is again the same as the principle of the experiment performed by Gargini et al. and published in Vision research, vol.
The results of the experiment are visualized by plotting the measurement of the first amplitude of the Fourier transform of the ERG as a function of the applied stimulus frequency (oscillating light stimulus of high luminance and contrast).
The ERG measurements were made 30 minutes after injection of the drug.
The ERG measurement was made 30 minutes after injection of the drug.
as §1

[4] = system: hyperpolarisation activated, cAMP-modulated cation current channels (HCN) in cardiac conductive tissue; details: cited from earlier work
heart rate [5] = type: in vivo, cat; details: maximum effect, FIG. 1
Description: This selection of the dose is based on the result shown in FIG. 1, wherein the reduction of heart rate is plotted against the applied dose of the drug (open circles: zatebradine; filled circles: cilobradine). […] Therefore, by choosing these doses, it can already be assumed that the pharmacological effect on heart rate of cilobradine is better than the pharmacological effect of zatebradine.

[6] = system: patients with heart failure; details: Shinke et al. 1997; cited from earlier work
cat eyes [7] = details: cited from earlier work

| Compound | measured heart rate frequency (heart rate [1]; acute treatment 0.3 mg/kg, 30 minutes after injection, control 400, FIG. 4) [beats per min.] | measured heart rate frequency (heart rate [1]; acute treatment 1 mg/kg, 30 minutes after injection, control 400, FIG. 4) [beats per min.] | measured heart rate frequency (heart rate [1]; acute treatment 3 mg/kg, 30 minutes after injection, control 400, FIG. 4) [beats per min.] | measured heart rate frequency (heart rate [1]; chronic treatment 2 weeks, FIG. 7, table row prints 1 mg/kg, text says double dose of 3 mg/kg per day, control 350) [beats per min.] | measured heart rate frequency (heart rate [1]; chronic treatment, single dose 1 mg/kg per day during 2 weeks, control 400, FIG. 6) [beats per min.] | ERG response (visual side-effect) (cat eyes [2]; after injection of 0.75 mg/kg body weight, FIG. 3) | visual side-effects ([3]; acute as well as chronic (2 weeks) treatment, FIGS. 4 and 6) | effect on the ERG (visual side-effect) ([3]; acute treatment 0.3, 1 and 3 mg/kg, FIG. 4) | block of HCN channels responsible for the current If [4] | reduction of the heart rate (heart rate [5]; dose of 0.75 mg/kg body weight) | measured heart rate frequency (heart rate [1]; acute treatment, single dose 3 mg/kg, 30 minutes after injection, control 428, FIG. 5) [beats per min.] | ERG response (visual side-effect) (cat eyes [2]; 15 minutes after 2.5 mg/kg body weight i.v. injection, FIG. 2) | ERG response (visual side-effect) (cat eyes [2]; 5 hours after injection of 2.5 mg/kg body weight, FIG. 2) | cardiac efficiency [6] | effect on the ERG (visual side-effect) ([3]; acute treatment, single dose 3 mg/kg, FIG. 5) | ERG response amplitude (cat eyes [7]; after administration of zatebradine, Archives Italiennes de Biologie 1999, Vision Research 1999) | cut-off introduced in the band-pass of the ERG response (cat eyes [7]; after intravenous injection or oral administration, decreased response amplitude in the range 2 to 15 Hertz) | reduction of the heart rate (heart rate [5]; dose of 2.5 mg/kg body weight) |
| --- | --- | --- | --- | --- | --- | --- | --- | --- | --- | --- | --- | --- | --- | --- | --- | --- | --- | --- |
| COc1ccc(CCN2CCC[C@H](CN3CCc4cc(OC)c(OC)cc4CC3=O)C2)cc1OC [cilobradine, (+)-3-[(N-(2-(3,4-dimethoxy-phenyl)-ethyl)-piperidin-3-(S)-yl)-methyl]-7,8-dimethoxy-1,3,4,5-tetrahydro-2H-3-benzazepin-2-one] | 364 | 316 | 270 | 285 | 260 | no visual effect can be detected | without visual side-effects | no effect on the ERG can be detected | selectively block | about 75% |  |  |  |  |  |  |  |  |
| COc1ccc(CCN(C)CCCN2CCc3cc(OC)c(OC)cc3CC2=O)cc1OC [zatebradine] |  |  |  |  |  |  |  |  | selectively block |  | 333 | reduces the amplitude of the response to stimuli of frequency above 1 Hz and shift the corresponding phase lags | visual response is back to normal | improved cardiac efficiency | a reduction of the amplitude of the response to stimuli of frequency above 1 Hz and a shift of the corresponding phase lags is observed | reduces the amplitude of the response to stimuli of frequency above 1 Hz | about 2 Hertz | about 44% |
